Measured values published in article PMC7845594, “Novel Immune Modulators Enhance Caenorhabditis elegans Resistance to Multiple Pathogens” (mSphere, 2021).
Values joined by “and” are separate entries in the source; they are usually repeats but may differ in a detail not shown here. Equal entries are not always repeated.

What was measured:
Assay type in all cases: in vivo, Caenorhabditis elegans
SKN-1/Nrf pathway = assay: gst-4p::GFP reporter; settings: 100 μM in 1% DMSO, no pathogen
Excerpt: To test activation of these pathways, worms carrying GFP-based reporters for the SKN-1/Nrf, PMK-1/p38 MAPK, and DAF-16/FOXO pathways (gst-4p::GFP, irg-5p::GFP, and DAF-16::GFP, respectively) were exposed to each compound in S Basal medium in the absence of the pathogen.
FIG 4 A subset of LK molecules activates reporters for the SKN-1/Nrf2 or PMK-1/p38 MAPK pathways. […] Also present are DMSO and ethanol negative controls for LK compounds and juglone, respectively. The fluorescence intensity was normalized to that of DMSO. (B) Worms carrying an irg-5p::GFP reporter for PMK-1/p38 MAPK activity were incubated at 25, 50, or 100 μM in 1% DMSO. Positive and negative controls consisted of 100 μM RPW-24 in 1% DMSO and 1% DMSO alone. Fluorescence was measured at 24 h. For both panels, ∼50 worms were used per well, and at least three wells were used per condition for each biological replicate. Mean values from at least three biological replicates are shown. *, P < 0.05; **, P < 0.01; ***, P < 0.001 compared to the solvent control. P values were calculated using Student’s t test. Error bars represent the standard error of the mean.
Worms were washed three times prior to incubation with compounds or DMSO control and diluted in S Basal medium supplemented with E. coli OP50 (OD600 = 0.08) as a food source. The fluorescence fold increase for gst-4p::GPF was taken as the fluorescence of each well and was normalized to the well’s fluorescence at 0 h. irg-5p::GFP, hsp-16.1p::GFP, rpt-6p::GFP, and hsp-4::GFP fluorescence was quantified as the fluorescence/worm area. For gst-4p::GFP, 100 µM ethanol-solubilized juglone was used as a positive control. Ethanol was also tested at 1% (vol/vol) as a control. For irg-5p::GFP, RPW-24 (100 µM) was used as a positive control. For quantification of nuclear localization of GFP fusion reporters, worms were scored as either localization positive or localization negative. DAF-16::GFP worms were scored as localization positive if >5 nuclei within the worm had localized GFP. All worms were imaged at the L4-young adult stage. […]

[1] = tested on: glp-4(bn2) C. elegans exposed to P. aeruginosa PA14; assay: P. aeruginosa liquid killing assay (effective rescue concentration); settings: glp-4(bn2) worms, ± 95% confidence interval
Protocol: For the first round of characterization, 69 novel small molecules previously selected on the basis of their ability to improve C. elegans survival during exposure to P. aeruginosa in liquid ([14]) were tested for the ability to interfere with bacterial growth. MICs were determined for each compound by growing P. aeruginosa strain PA14 in static culture in 384-well plates with serial 2-fold dilutions of compounds. No worms were used in these assays. Next, effective rescue concentrations (EC; defined as the minimum concentration that results in statistically significant survival, compared to dimethyl sulfoxide [DMSO]) ([15], [18]) were determined for each compound using the standard P. aeruginosa liquid killing assay. Sterile glp-4(bn2) worms were used in all liquid-based assays to limit artifacts (i.e., unlaid eggs will hatch and cause matricide).
FIG 1 LK molecules rescue C. elegans from P. aeruginosa in liquid killing. […] (B) Lipinski values for the five LK molecules, showing their molecular mass, predicted octanol-water partition coefficient, polar surface area, number of hydrogen donors and acceptors, and the number of rotatable bonds. (C) Minimum effective concentrations (EC) and 95% confidence interval, MICs (defined as the minimum concentration to prevent grown in LB media), and their ratio (MIC/EC). The minimum effective concentration was calculated from the lowest concentration that retained statistically significant rescue of glp-4(bn2) C. elegans, a temperature-sensitive sterile strain, from exposure to P. aeruginosa PA14. […] Compounds were added in serial 2-fold dilutions from 50 µM to 12.5 μM. *, P < 0.05; **, P < 0.01; ***, P < 0.001. P values were calculated using Student’s t test. At least six wells containing 20 worms each per condition per replicate were used for determination of liquid killing. EC values were calculated based on at least three biological replicates. Error bars represent the standard error of the mean.
Liquid killing of C. elegans was performed as previously described with some changes ([91]). In brief, an overnight culture of LB medium was inoculated with a single colony of Pseudomonas aeruginosa strain PA14. Then, 400 µl of culture was spread onto a 10-cm slow-kill agar plate ([91]) and grown for 24 h at 37°C, followed by 24 h at 25°C. Bacteria were scraped from the plate, resuspended in S Basal medium, and added to 384-well plates with small molecules dissolved in DMSO. Solution in wells contained a final concentration of 40% SK media, 59% S Basal medium, 1% DMSO, and small molecules. For all liquid-based killing assays, solvent control wells contained 1% DMSO. MgSO4 and CaCl2 (300 µM) and cholesterol (1.6 µg/ml) were added to aid in production of virulence factors. Worms were sorted into 384-well plates using a COPAS FlowSort (Union Biometrica, Holliston, MA), incubated at 25°C until the DMSO control was roughly 35 to 55% dead, washed four times using an EL406 microplate washer (BioTek, VT), and stained with 50 μl of Sytox Orange at 1 µM to fluorescently stain dead worms. Wells were imaged in bright-field and RFP channels using the BioTek Cytation5, followed by image analysis using the CellProfiler software package to calculate fraction of dead worms in each well. EC values were defined as the minimum concentration that provided statistically significant rescue. At least three biological replicates were performed.

[2] = tested on: glp-4(bn2) worms exposed to P. aeruginosa isolate PA2-61; assay: Liquid killing assay with cystic fibrosis isolate; settings: isolate PA2-61, serial 2-fold dilutions from 50 µM to 12.5 μM
Protocol: We also tested these strains against a P. aeruginosa isolate from a pediatric cystic fibrosis patient, P. aeruginosa PA2-61, that we previously characterized ([22]).
Liquid killing of C. elegans was performed as previously described with some changes ([91]). In brief, an overnight culture of LB medium was inoculated with a single colony of Pseudomonas aeruginosa strain PA14. Then, 400 µl of culture was spread onto a 10-cm slow-kill agar plate ([91]) and grown for 24 h at 37°C, followed by 24 h at 25°C. Bacteria were scraped from the plate, resuspended in S Basal medium, and added to 384-well plates with small molecules dissolved in DMSO. Solution in wells contained a final concentration of 40% SK media, 59% S Basal medium, 1% DMSO, and small molecules. For all liquid-based killing assays, solvent control wells contained 1% DMSO. MgSO4 and CaCl2 (300 µM) and cholesterol (1.6 µg/ml) were added to aid in production of virulence factors. Worms were sorted into 384-well plates using a COPAS FlowSort (Union Biometrica, Holliston, MA), incubated at 25°C until the DMSO control was roughly 35 to 55% dead, washed four times using an EL406 microplate washer (BioTek, VT), and stained with 50 μl of Sytox Orange at 1 µM to fluorescently stain dead worms. Wells were imaged in bright-field and RFP channels using the BioTek Cytation5, followed by image analysis using the CellProfiler software package to calculate fraction of dead worms in each well. […]

COC(=O)/C=C/C(=O)Nc1ccccc1 [LK32]
gst-4p::GFP induction (SKN-1/Nrf activation) (SKN-1/Nrf pathway): induced gst-4p::GFP
EC (minimum effective concentration giving statistically significant rescue) [1]: 32 ± 0.0 µM and 32 µM

O=c1cc(CNc2ccc(Br)cc2)nc2sccn12 [LK56]
Dose dependence of rescue in liquid killing [2]: dose-dependent rescue
gst-4p::GFP induction (SKN-1/Nrf activation) (SKN-1/Nrf pathway): not activated
EC (minimum effective concentration giving statistically significant rescue) [1]: 7.3 ± 1.9 µM and 7.3 µM

CNC(=O)Oc1c(Br)cc2sc(=O)oc2c1Br [LK34]
Dose dependence of rescue in liquid killing [2]: dose-dependent rescue
gst-4p::GFP induction (SKN-1/Nrf activation) (SKN-1/Nrf pathway): induced gst-4p::GFP
EC (minimum effective concentration giving statistically significant rescue) [1]: 9.3 ± 4.4 µM and 9.3 µM

CN(C)/N=N/c1ccc(-c2cn(Cc3ccccc3)cn2)cc1 [LK38]
Dose dependence of rescue in liquid killing [2]: dose-dependent rescue
EC (minimum effective concentration giving statistically significant rescue) [1]: 6.7 ± 2.0 µM

CCN(CC)/N=N/c1ccc(C(=O)O)cc1 [LK35]
EC (minimum effective concentration giving statistically significant rescue) [1]: 17.3 ± 6.1 µM
